According to patent US20220204498A1, “PYRIDO-PYRIMIDINYL COMPOUNDS AND METHODS OF USE” (Genentech, Inc., priority 2019, published 2022):
Where a name gives a salt, the structure may show the parent alone.

These compounds were tested against T1, IRE1α (Homo sapiens, UniProt O75460, D688N) (assay: IRE1α TR-FRET competition binding assay (IRE1α HTRF)). Settings: His-tagged IRE1α kinase dead construct (KR, D688N) 0.25 nM; Alexa fluor 647-labeled ATP competitive probe 2 nM; one hour at room temperature; read-out: IRE1α (alpha) HTRF (IC50).
T1 construct: containing the kinase and RNase domains (KR, AA G547-1L977, D688N); made in house; host or cells: Sf9 insect cells
T1 sequence (O75460 547-977 D688N): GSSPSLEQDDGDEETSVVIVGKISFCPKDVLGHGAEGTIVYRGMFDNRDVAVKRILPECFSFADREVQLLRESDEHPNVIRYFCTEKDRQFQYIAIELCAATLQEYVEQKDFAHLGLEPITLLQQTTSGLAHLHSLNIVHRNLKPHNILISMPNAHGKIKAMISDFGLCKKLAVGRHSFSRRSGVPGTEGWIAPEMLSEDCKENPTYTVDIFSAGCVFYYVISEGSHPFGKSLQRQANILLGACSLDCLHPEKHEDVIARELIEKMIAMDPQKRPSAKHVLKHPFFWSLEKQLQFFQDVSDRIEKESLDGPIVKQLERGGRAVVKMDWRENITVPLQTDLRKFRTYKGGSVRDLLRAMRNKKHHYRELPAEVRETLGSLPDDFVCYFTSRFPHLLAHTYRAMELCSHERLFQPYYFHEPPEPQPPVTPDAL
Method: Example 59. IRE1α TR-FRET Competition Binding Assay
To determine the affinity of compound binding to the kinase domain of IRE1α, a time-resolved fluorescence resonance energy transfer (TR-FRET) competition assay was used.
A His-tagged IRE1α kinase dead construct containing the kinase and RNase domains (KR, AA G547-1L977, D688N) was expressed in Sf9 insect cells. The purified protein (final concentration 0.25 nM) was pre-incubated with anti-His Europium labeled antibody (Life Technologies PV5596, final concentration 2 nM) for one hour at 4° C. in TR-FRET Assay Buffer (50 mM HEPES, pH 7.5, 10 mM MgCl2, 0.083 mM Brij 35, 1 mM DTT, and 0.1% bovine gamma globulin) prior to addition to test compounds. An Alexa fluor 647-labeled probe based on an ATP competitive inhibitor was added to a final concentration of 2 nM. Reactions were carried out for one hour at room temperature in a final volume of 20 μL in 384 well white ProxiPlates (Perkin Elmer 6008289). Binding of the probe to the IRE1α protein was detected in an Envision instrument (PerkinElmer) equipped with a TRF laser option and a LANCE/Delfia Dual/Bias D400/D630 mirror (Ex 347 nm, 1st Em 665 nm, 2nd Em 615 nm).
Compound `O=S(=O)(Cc1ccccc1)Nc1c(F)cc(-c2cc3cnc(N[C@@H]4CNC[C@@H](F)C4)nc3nc2OC2CCOC2)c(F)c1F` (single isomer, unassigned) [Compound 104] has an IC50 of 0.66 nM.
Compound `CCc1cc(-c2ccc(NS(=O)(=O)c3ccccc3OC(F)F)nc2C)nc2cnc(N[C@H]3CC[C@H](N(C)C)CC3)nc12` [Compound 148, 2-(Difluoromethoxy)-N-(5-(2-(((1,4-trans)-4-(dimethylamino)cyclohexyl)amino)-8-ethylpyrido[3,2-d]pyrimidin-6-yl)-6-methylpyridin-2-yl)benzenesulfonamide] has an IC50 of 0.51 nM.
`CCc1cc(-c2ccc(NS(=O)(=O)Cc3ccccc3)c(F)c2)nc2cnc(N[C@@H]3CNC[C@@H](F)C3)nc12` [Compound 122, N-(4-(8-Ethyl-2-(((3S,5S)-5-fluoropiperidin-3-yl)amino)pyrido[3,2-d]pyrimidin-6-yl)-2-fluorophenyl)-1-phenylmethanesulfonamide formate] was tested, and the IC50 was 0.2 nM.
With `CCc1cc(-c2ccc(NS(=O)(=O)Cc3ccc(S(C)(=O)=O)cc3)c(F)c2)nc2cnc(N[C@H]3CC[C@H](N(C)C)CC3)nc12` [Compound 152, N-(4-(2-(((1,4-trans)-4-(Dimethylamino)cyclohexyl)amino)-8-ethylpyrido[3,2-d]pyrimidin-6-yl)-2-fluorophenyl)-1-(4-(methylsulfonyl)phenyl)methanesulfonamide] the IC50 was 0.12 nM.
`CCCS(=O)(=O)Nc1ccc(-c2cc(C)c3nc(N[C@H]4CC[C@H](N(C)C)CC4)ncc3n2)cc1F` [Compound 112, N-(4-(2-(((1,4-trans)-4-(Dimethylamino)cyclohexyl)amino)-8-methylpyrido[3,2-d]pyrimidin-6-yl)-2-fluorophenyl)propane-1-sulfonamide formate] gave an IC50 of 0.32 nM.
`Cc1nc(NS(=O)(=O)CCC(F)(F)F)ccc1-c1cc(C)c2nc(N[C@H]3CC[C@H](N(C)C)CC3)ncc2n1` [Compound 126, N-(5-(2-(((1,4-trans)-4-(Dimethylamino)cyclohexyl)amino)-8-methylpyrido[3,2-d]pyrimidin-6-yl)-6-methylpyridin-2-yl)-3,3,3-trifluoropropane-1-sulfonamide] was tested, and the IC50 was 18 nM.
`Cc1cc(-c2ccc(NS(=O)(=O)CCC(F)(F)F)c(F)c2)nc2cnc(N[C@@H]3CNC[C@@H](F)C3)nc12` [Compound 110, 3,3,3-Trifluoro-N-(2-fluoro-4-(2-(((3S,5S)-5-fluoropiperidin-3-yl)amino)-8-methylpyrido[3,2-d]pyrimidin-6-yl)phenyl)propane-1-sulfonamide] was tested, and the IC50 was 1.1 nM.
`Cc1cc(-c2ccc(NS(=O)(=O)c3cccnc3C(F)(F)F)c(F)c2)nc2cnc(N[C@H]3CC[C@H](N(C)C)CC3)nc12` [Compound 157, N-[4-[2-[[(1,4-trans)-4-(Dimethylamino)cyclohexyl]amino]-8-methyl-pyrido[3,2-d]pyrimidin-6-yl]-2-fluoro-phenyl]-2-(trifluoromethyl)pyridine-3-sulfonamide] gave an IC50 of 0.23 nM.
For `CC(Oc1nc2nc(N[C@@H]3CNC[C@@H](F)C3)ncc2cc1-c1ccc(NS(=O)(=O)Cc2ccccc2)c(F)c1F)C(F)F` (single isomer, unassigned) [Compound 102], the IC50 was 1.1 nM.
Compound `CCc1cc(-c2ccc(NS(=O)(=O)c3ccccc3F)nc2C)nc2cnc(N[C@H]3CC[C@H](N(C)C)CC3)nc12` [Compound 146, N-(5-(2-(((1,4-trans)-4-(dimethylamino)cyclohexyl)amino)-8-ethylpyrido[3,2-d]pyrimidin-6-yl)-6-methylpyridin-2-yl)-2-fluorobenzenesulfonamide] has an IC50 of 0.21 nM.
For `Cc1cc(-c2ccc(NS(=O)(=O)Cc3ccc(F)cc3)c(F)c2)nc2cnc(N[C@H]3CC[C@H](N(C)C)CC3)nc12` [Compound 129, N-(4-(2-(((1,4-trans)-4-(Dimethylamino)cyclohexyl)amino)-8-methylpyrido[3,2-d]pyrimidin-6-yl)-2-fluorophenyl)-1-(4-fluorophenyl)methanesulfonamide], the IC50 was 0.08 nM.
With `CCc1cc(-c2ccc(NS(=O)(=O)CCC(F)(F)F)c(F)c2)nc2cnc(N[C@@H]3CNC[C@@H](F)C3)nc12` [Compound 119, N-(4-(8-Ethyl-2-(((3S,5S)-5-fluoropiperidin-3-yl)amino)pyrido[3,2-d]pyrimidin-6-yl)-2-fluorophenyl)-3,3,3-trifluoropropane-1-sulfonamide formate] the IC50 was 0.39 nM.
`Cc1cc(-c2ccc(NS(=O)(=O)c3cccnc3)c(F)c2)nc2cnc(N[C@H]3CC[C@H](N(C)C)CC3)nc12` [Compound 154, N-[4-[2-[[(1,4-trans)-4-(Dimethylamino)cyclohexyl]amino]-8-methyl-pyrido[3,2-d]pyrimidin-6-yl]-2-fluoro-phenyl]pyridine-3-sulfonamide] showed an IC50 of 0.21 nM.
`CCC(F)(F)CS(=O)(=O)Nc1ccc(-c2cc(C)c3nc(N[C@H]4CC[C@H](N(C)C)CC4)ncc3n2)cc1F` [Compound 117, N-(4-(2-(((1,4-trans)-4-(Dimethylamino)cyclohexyl)amino)-8-methylpyrido[3,2-d]pyrimidin-6-yl)-2-fluorophenyl)-2,2-difluorobutane-1-sulfonamide formate] showed an IC50 of 0.11 nM.
`CN(C)[C@H]1CC[C@H](Nc2ncc3nc(-c4ccc(NS(=O)(=O)CCC(F)(F)F)c(F)c4)cc(C(F)F)c3n2)CC1` [Compound 144, N-[(1,4-trans)-4-[8-(Difluoromethyl)-2-[[4-(dimethylamino)cyclohexyl]amino]pyrido[3,2-d]pyrimidin-6-yl]-2-fluoro-phenyl]-3,3,3-trifluoro-propane-1-sulfonamide] showed an IC50 of 0.16 nM.
For `Cc1nc(NS(=O)(=O)c2ccccc2Cl)ccc1-c1cc(C)c2nc(N[C@@H]3CNC[C@@H](F)C3)ncc2n1` [Compound 136, 2-Chloro-N-(5-(2-(((3S,5S)-5-fluoropiperidin-3-yl)amino)-8-methylpyrido[3,2-d]pyrimidin-6-yl)-6-methylpyridin-2-yl)benzenesulfonamide], the IC50 was 14 nM.
Compound `Cc1cc(-c2ccc(NC(=O)CC(C)C)c(F)c2)nc2cnc(N[C@H]3CC[C@H](N(C)C)CC3)nc12` [Compound 127, N-(4-(2-(((1,4-trans)-4-(Dimethylamino)cyclohexyl)amino)-8-methylpyrido[3,2-d]pyrimidin-6-yl)-2-fluorophenyl)-3-methylbutanamide] has an IC50 of 140 nM.
Work on `Cc1nc(NS(=O)(=O)Cc2ccc(F)cc2)ccc1-c1cc(C(F)F)c2nc(N[C@H]3CC[C@H](N(C)C)CC3)ncc2n1` [Compound 133, N-(5-(8-(Difluoromethyl)-2-(((1,4-trans)-4-(dimethylamino)cyclohexyl)amino)pyrido[3,2-d]pyrimidin-6-yl)-6-methylpyridin-2-yl)-1-(4-fluorophenyl)methanesulfonamide] yielded an IC50 of 5.2 nM.
With `CCCS(=O)(=O)Nc1ccc(-c2cc(C)c3nc(N[C@@H]4CNC[C@@H](F)C4)ncc3n2)cc1F` [Compound 111, N-(2-Fluoro-4-(2-(((3S,5S)-5-fluoropiperidin-3-yl)amino)-8-methylpyrido[3,2-d]pyrimidin-6-yl)phenyl)propane-1-sulfonamide] the IC50 was 2.1 nM.
For `Cc1cc(-c2ccc(NS(=O)(=O)c3ccccn3)c(F)c2)nc2cnc(N[C@H]3CC[C@H](N(C)C)CC3)nc12` [Compound 158, N-(4-(2-(((1,4-trans)-4-(Dimethylamino)cyclohexyl)amino)-8-methylpyrido[3,2-d]pyrimidin-6-yl)-2-fluorophenyl)pyridine-2-sulfonamide], the IC50 was 0.2 nM.
`Cc1cc(-c2ccc(NS(=O)(=O)Cc3ccc(C#N)cc3)c(F)c2)nc2cnc(N[C@@H]3CNC[C@@H](F)C3)nc12` [Compound 116, 1-(4-Cyanophenyl)-N-(2-fluoro-4-(2-(((3S,5S)-5-fluoropiperidin-3-yl)amino)-8-methylpyrido[3,2-d]pyrimidin-6-yl)phenyl)methanesulfonamide formate] gave an IC50 of 0.13 nM.
With `Cc1cc(-c2ccc(NS(=O)(=O)Cc3ccccc3)c(F)c2)nc2cnc(N[C@@H]3CNC[C@@H](F)C3)nc12` [Compound 106, N-(2-Fluoro-4-(2-(((3S,5S)-5-fluoropiperidin-3-yl)amino)-8-methylpyrido[3,2-d]pyrimidin-6-yl)phenyl)-1-phenylmethanesulfonamide] the IC50 was 0.3 nM.
With `Cc1cc(-c2cc(F)c(NS(=O)(=O)Cc3ccccc3)c(F)c2)nc2cnc(N[C@@H]3CNC[C@@H](F)C3)nc12` [Compound 108, N-(2,6-Difluoro-4-(2-(((3S,5S)-5-fluoropiperidin-3-yl)amino)-8-methylpyrido[3,2-d]pyrimidin-6-yl)phenyl)-1-phenylmethanesulfonamide] the IC50 was 0.2 nM.
In the case of `Cc1cc(-c2ccc(NS(=O)(=O)CCC(F)(F)F)c(Cl)c2)nc2cnc(N[C@H]3CC[C@H](N(C)C)CC3)nc12` [Compound 120, N-(2-Chloro-4-(2-(((1,4-trans)-4-(dimethylamino)cyclohexyl)amino)-8-methylpyrido[3,2-d]pyrimidin-6-yl)phenyl)-3,3,3-trifluoropropane-1-sulfonamide], the IC50 is reported as 0.25 nM.
Compound `COCc1cc(-c2ccc(NS(=O)(=O)Cc3ccc(F)cc3)c(F)c2)nc2cnc(N[C@H]3CC[C@H](N(C)C)CC3)nc12` [Compound 138, N-(4-(2-(((1,4-trans)-4-(Dimethylamino)cyclohexyl)amino)-8-(methoxymethyl)pyrido[3,2-d]pyrimidin-6-yl)-2-fluorophenyl)-1-(4-fluorophenyl)methanesulfonamide] has an IC50 of 0.21 nM.
